# Laboratory results published in patent publication US20110105515A1, “TARGETING THE ONCOPROTEIN NUCLEOPHOSMIN” (President and Fellows of Harvard College, priority 2007, published 2011).
# Like-named read-outs stand apart in the source and are kept apart here.
# How the values were obtained:
# [1] = tested on: MOLT-4; settings: MOLT-4 (Leukemia), 48 hours, SRB
# [2] = tested on: A549/ATCC; settings: A549/ATCC (Non-Small Cell Lung Cancer), 48 hours, SRB
# [3] = tested on: EKVX; settings: EKVX (Non-Small Cell Lung Cancer), 48 hours, SRB
# [4] = tested on: HOP-62; settings: HOP-62 (Non-Small Cell Lung Cancer), 48 hours, SRB
# [5] = tested on: NCI-H23; settings: NCI-H23 (Non-Small Cell Lung Cancer), 48 hours, SRB
# [6] = tested on: NCI-H460; settings: NCI-H460 (Non-Small Cell Lung Cancer), 48 hours, SRB
# [7] = tested on: NCI-H522; settings: NCI-H522 (Non-Small Cell Lung Cancer), 48 hours, SRB
# [8] = tested on: COLO 205; settings: COLO 205 (Colon Cancer), 48 hours, SRB
# [9] = tested on: HCC-2998; settings: HCC-2998 (Colon Cancer), 48 hours, SRB
# [10] = tested on: HCT-116; settings: HCT-116 (Colon Cancer), 48 hours, SRB
# [11] = tested on: HCT-15; settings: HCT-15 (Colon Cancer), 48 hours, SRB
# [12] = tested on: KM12; settings: KM12 (Colon Cancer), 48 hours, SRB
# [13] = tested on: SF-268; settings: SF-268 (CNS Cancer), 48 hours, SRB
# [14] = tested on: SF-295; settings: SF-295 (CNS Cancer), 48 hours, SRB
# [15] = tested on: LOX IMVI; settings: LOX IMVI (Melanoma), 48 hours, SRB
# [16] = tested on: SK-MEL-28; settings: SK-MEL-28 (Melanoma), 48 hours, SRB
# [17] = tested on: SK-MEL-5; settings: SK-MEL-5 (Melanoma), 48 hours, SRB
# [18] = tested on: OVCAR-4; settings: OVCAR-4 (Ovarian Cancer), 48 hours, SRB
# [19] = tested on: OVCAR-5; settings: OVCAR-5 (Ovarian Cancer), 48 hours, SRB
# [20] = tested on: SK-OV-3; settings: SK-OV-3 (Ovarian Cancer), 48 hours, SRB
# [21] = tested on: TK-10; settings: TK-10 (Renal Cancer), 48 hours, SRB
# [22] = tested on: NCI/ADR-RES; settings: NCI/ADR-RES (Breast Cancer), 48 hours, SRB
# [23] = tested on: MDA-MB-435; settings: MDA-MB-435 (Breast Cancer), 48 hours, SRB
# [24] = tested on: T-47D; settings: T-47D (Breast Cancer), 48 hours, SRB
# [25] = tested on: MDA-MB-468; settings: MDA-MB-468 (Breast Cancer), 48 hours, SRB
# [26] = tested on: EKVX; test: cells; settings: Homo sapiens, 48 h
# [27] = tested on: HCC-2998; test: cells; settings: Homo sapiens, HCC 2998, 48 h
# [28] = tested on: HCT-116; test: cells; settings: Homo sapiens, HCT-116, 48 h
# [29] = tested on: 786-0; test: cells; settings: Homo sapiens, 786-0, 48 h
# [30] = tested on: UO-31; test: cells; settings: Homo sapiens, UO-31, 48 h
# [31] = tested on: HS578T; test: cells; settings: Homo sapiens, Hs-578T, 48 h
# [32] = tested on: BT-549; test: cells; settings: Homo sapiens, BT-549, 48 h
compound,measurement,setting,value
CN(C)c1cccc2c(S(=O)(=O)NCCCCCCCCCCOc3ccc4c(c3)[N+]([O-])=C3C4=C[C@@]45NC(=O)C6(CCCN6C4=O)CC5C3(C)C)cccc12 (stereo partly drawn) [Dansyl Analogue],GI50,[1],276 nM
same,CC50,[1]; read-out: LC50,> 100 µM
same,GI50,[2],2170 nM
same,TGI,[2],5.37 µM
same,CC50,[2]; read-out: LC50,18.1 µM
same,GI50,[3],540 nM
same,TGI,[3],3.63 µM
same,CC50,[3]; read-out: LC50,37 µM
same,GI50,[4],2380 nM
same,TGI,[4],4.64 µM
same,CC50,[4]; read-out: LC50,9.02 µM
same,GI50,[5],581 nM
same,TGI,[5],2.48 µM
same,CC50,[5]; read-out: LC50,9.05 µM
same,GI50,[6],700 nM
same,TGI,[6],1.99 µM
same,CC50,[6]; read-out: LC50,4.64 µM
same,GI50,[7],260 nM
same,TGI,[7],0.857 µM
same,CC50,[7]; read-out: LC50,8.89 µM
same,GI50,[8],328 nM
same,TGI,[8],1.14 µM
same,CC50,[8]; read-out: LC50,3.86 µM
same,GI50,[9],946 nM
same,TGI,[9],2.32 µM
same,CC50,[9]; read-out: LC50,5.49 µM
same,GI50,[10],349 nM
same,TGI,[10],1.15 µM
same,CC50,[10]; read-out: LC50,5.98 µM
same,GI50,[11],484 nM
same,TGI,[11],1.75 µM
same,CC50,[11]; read-out: LC50,4.18 µM
same,GI50,[12],1250 nM
same,TGI,[12],2.88 µM
same,CC50,[12]; read-out: LC50,6.6 µM
same,GI50,[13],282 nM
same,TGI,[13],0.853 µM
same,CC50,[13]; read-out: LC50,3.69 µM
same,GI50,[14],1730 nM
same,TGI,[14],4.63 µM
same,CC50,[14]; read-out: LC50,49.4 µM
same,GI50,[15],166 nM
same,TGI,[15],0.31 µM
same,CC50,[15]; read-out: LC50,579 nM
same,GI50,[16],282 nM
same,TGI,[16],0.678 µM
same,GI50,[17],373 nM
same,TGI,[17],1.47 µM
same,CC50,[17]; read-out: LC50,3.84 µM
same,GI50,[18],348 nM
same,TGI,[18],7.42 µM
same,CC50,[18]; read-out: LC50,32.2 µM
same,GI50,[19],1460 nM
same,TGI,[19],2.96 µM
same,CC50,[19]; read-out: LC50,5.97 µM
same,GI50,[20],1650 nM
same,TGI,[20],4.13 µM
same,CC50,[20]; read-out: LC50,10.8 µM
same,GI50,[21],716 nM
same,TGI,[21],2.81 µM
same,CC50,[21]; read-out: LC50,9.66 µM
same,GI50,[22],28.2 µM
same,TGI,[22],>100 µM
same,CC50,[22]; read-out: LC50,> 100 µM
same,GI50,[23],382 nM
same,TGI,[23],1.92 µM
same,CC50,[23]; read-out: LC50,23.1 µM
same,GI50,[24],152 nM
same,TGI,[24],572 nM
same,CC50,[24]; read-out: LC50,3.14 µM
same,GI50,[25],202 nM
same,TGI,[25],0.436 µM
same,CC50,[25]; read-out: LC50,941 nM
[2H]On1c2c(c3ccc4c(c31)C=CC(C)(C)O4)C(OC([2H])([2H])[2H])[C@@]13NC(=O)C4(CCCN4C1=O)CC3C2(C)C (stereo partly drawn) [Deuterated Methanol Adduct],TGI,[1],1.38 µM
same,TGI,[2],2.99 µM
same,TGI,[3],1.97 µM
same,TGI,[4],7.03 µM
same,TGI,[5],2.43 µM
same,TGI,[6],3.6 µM
same,TGI,[7],1.8 µM
same,TGI,[8],1.45 µM
same,TGI,[9],2.01 µM
same,TGI,[10],1.97 µM
same,TGI,[11],1.77 µM
same,TGI,[12],2.52 µM
same,TGI,[13],3.01 µM
same,TGI,[14],2.73 µM
same,TGI,[15],2.14 µM
same,TGI,[16],1.82 µM
same,TGI,[17],2.71 µM
same,TGI,[18],1.63 µM
same,TGI,[19],1.91 µM
same,TGI,[20],2.16 µM
same,TGI,[21],2.35 µM
same,TGI,[22],9.95 µM
same,TGI,[23],1.77 µM
same,TGI,[24],1380 nM
same,TGI,[25],1.78 µM
same,GI50,[26],594 nM
same,CC50,[26]; read-out: LC50,4.64 µM
same,GI50,[27],692 nM
same,CC50,[27]; read-out: LC50,4.71 µM
same,GI50,[28],744 nM
same,CC50,[28]; read-out: LC50,4.44 µM
same,GI50,[29],1200 nM
same,CC50,[29]; read-out: LC50,5.02 µM
same,GI50,[30],498 nM
same,CC50,[30]; read-out: LC50,4.29 µM
same,GI50,[31],492 nM
same,GI50,[32],598 nM
same,CC50,[32]; read-out: LC50,4.69 µM
